System: 994946-033-R-J1-PDC complex spheroid viability
Test: Anticancer human tumor 994946-033-R-J1-PDC patient-derived melanoma cell line growth inhibition [POLQ]
Conditions: for IC50: curve of first compound; for viability, T/C: stronger effect = lower value
Summary of the method: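 Patient-derived tumour cells were co-cultured with HUVEC and mesenchymal stem cells as multicellular spheroids at 37 °C. They were treated with POLQ inhibitors (novobiocin, ART-558, RP6685) alone or combined with other agents. Top concentrations were at or near clinical Cmax (otherwise 10 microM; SN-38 at 1 microM), decreasing in half-log steps.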
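Further: spheroids exposed to drugs for 7 days.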
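Wherever viability, T/C is given: 100% = DMSO vehicle treated spheroids.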

## CC1COCCN1c1cc(C2(O)CC3CCC(C2)O3)c2cnn(-c3ccn[nH]3)c2n1 (centres undefined) + COC1C(OC(N)=O)C(O)C(Oc2ccc3c(O)c(NC(=O)c4ccc(O)c(CC=C(C)C)c4)c(=O)oc3c2C)OC1(C)C
Second compound 0.0316 µM
  IC50: 36.6 nM
Second compound 0.1 µM
  IC50: 50.5 nM
Second compound 0.316 µM
  IC50: 34 nM
Second compound 1 µM
  IC50: 68.1 nM
Second compound 3.16 µM
  IC50: < 31.6 nM
Second compound 10 µM
  IC50: 44.5 nM
Second compound 0.0316 µM, first compound 0.0316 µM
  viability, T/C: 52.4%
Second compound 0.0316 µM, first compound 0.1 µM
  viability, T/C: 39.7%
Second compound 0.0316 µM, first compound 0.316 µM
  viability, T/C: 17.2%
Second compound 0.0316 µM, first compound 1 µM
  viability, T/C: 25.7%
Second compound 0.0316 µM, first compound 3.16 µM
  viability, T/C: 12.7%
Second compound 0.0316 µM, first compound 10 µM
  viability, T/C: 6.6%
Second compound 0.1 µM, first compound 0.0316 µM
  viability, T/C: 61.9%
Second compound 0.1 µM, first compound 0.1 µM
  viability, T/C: 32.1%
Second compound 0.1 µM, first compound 0.316 µM
  viability, T/C: 19.1%
Second compound 0.1 µM, first compound 1 µM
  viability, T/C: 17.5%
Second compound 0.1 µM, first compound 3.16 µM
  viability, T/C: 11.9%
Second compound 0.1 µM, first compound 10 µM
  viability, T/C: 6.15%
Second compound 0.316 µM, first compound 0.0316 µM
  viability, T/C: 52.1%
Second compound 0.316 µM, first compound 0.1 µM
  viability, T/C: 29.5%
Second compound 0.316 µM, first compound 0.316 µM
  viability, T/C: 19.2%
Second compound 0.316 µM, first compound 1 µM
  viability, T/C: 16.5%
Second compound 0.316 µM, first compound 3.16 µM
  viability, T/C: 14.3%
Second compound 0.316 µM, first compound 10 µM
  viability, T/C: 6.89%
Second compound 1 µM, first compound 0.0316 µM
  viability, T/C: 79.2%
Second compound 1 µM, first compound 0.1 µM
  viability, T/C: 30.6%
Second compound 1 µM, first compound 0.316 µM
  viability, T/C: 25.5%
Second compound 1 µM, first compound 1 µM
  viability, T/C: 20.1%
Second compound 1 µM, first compound 3.16 µM
  viability, T/C: 14.2%
Second compound 1 µM, first compound 10 µM
  viability, T/C: 5.41%
Second compound 3.16 µM, first compound 0.0316 µM
  viability, T/C: 46.6%
Second compound 3.16 µM, first compound 0.1 µM
  viability, T/C: 25.5%
Second compound 3.16 µM, first compound 0.316 µM
  viability, T/C: 23.7%
Second compound 3.16 µM, first compound 1 µM
  viability, T/C: 18.9%
Second compound 3.16 µM, first compound 3.16 µM
  viability, T/C: 8.1%
Second compound 3.16 µM, first compound 10 µM
  viability, T/C: 4.51%
Second compound 10 µM, first compound 0.0316 µM
  viability, T/C: 56.8%
Second compound 10 µM, first compound 0.1 µM
  viability, T/C: 35.9%
Second compound 10 µM, first compound 0.316 µM
  viability, T/C: 27.6%
Second compound 10 µM, first compound 1 µM
  viability, T/C: 22.5%
Second compound 10 µM, first compound 3.16 µM
  viability, T/C: 15.3%
Second compound 10 µM, first compound 10 µM
  viability, T/C: 5.9%

## CC(=O)O[C@H]1C(=O)[C@@]2(C)[C@H]([C@H](OC(=O)c3ccccc3)[C@]3(O)C[C@H](OC(=O)[C@H](O)[C@@H](NC(=O)c4ccccc4)c4ccccc4)C(C)=C1C3(C)C)[C@]1(OC(C)=O)CO[C@@H]1C[C@@H]2O + Cc1cccc(N(C)C(=O)C2C(O)CCN2c2nc(C)cc(C(F)(F)F)c2C#N)c1
Second compound 0.0316 µM
  IC50: < 9.49 nM
Second compound 0.1 µM
  IC50: < 9.49 nM
Second compound 0.316 µM
  IC50: < 9.49 nM
Second compound 1 µM
  IC50: < 9.49 nM
Second compound 3.16 µM
  IC50: < 9.49 nM
Second compound 10 µM
  IC50: < 9.49 nM
Second compound 0.0316 µM, first compound 0.00949 µM
  viability, T/C: 19.5%
Second compound 0.0316 µM, first compound 0.03 µM
  viability, T/C: 19.7%
Second compound 0.0316 µM, first compound 0.0949 µM
  viability, T/C: 20.6%
Second compound 0.0316 µM, first compound 0.3 µM
  viability, T/C: 13.5%
Second compound 0.0316 µM, first compound 0.949 µM
  viability, T/C: 9.96%
Second compound 0.0316 µM, first compound 3 µM
  viability, T/C: 8.94%
Second compound 0.1 µM, first compound 0.00949 µM
  viability, T/C: 22.4%
Second compound 0.1 µM, first compound 0.03 µM
  viability, T/C: 20.6%
Second compound 0.1 µM, first compound 0.0949 µM
  viability, T/C: 16.8%
Second compound 0.1 µM, first compound 0.3 µM
  viability, T/C: 16.8%
Second compound 0.1 µM, first compound 0.949 µM
  viability, T/C: 10.6%
Second compound 0.1 µM, first compound 3 µM
  viability, T/C: 12.3%
Second compound 0.316 µM, first compound 0.00949 µM
  viability, T/C: 16.1%
Second compound 0.316 µM, first compound 0.03 µM
  viability, T/C: 31.9%
Second compound 0.316 µM, first compound 0.0949 µM
  viability, T/C: 16.3%
Second compound 0.316 µM, first compound 0.3 µM
  viability, T/C: 15.3%
Second compound 0.316 µM, first compound 0.949 µM
  viability, T/C: 14.7%
Second compound 0.316 µM, first compound 3 µM
  viability, T/C: 14.6%
Second compound 1 µM, first compound 0.00949 µM
  viability, T/C: 23.4%
Second compound 1 µM, first compound 0.03 µM
  viability, T/C: 21.8%
Second compound 1 µM, first compound 0.0949 µM
  viability, T/C: 18.9%
Second compound 1 µM, first compound 0.3 µM
  viability, T/C: 19.6%
Second compound 1 µM, first compound 0.949 µM
  viability, T/C: 12.4%
Second compound 1 µM, first compound 3 µM
  viability, T/C: 12.7%
Second compound 3.16 µM, first compound 0.00949 µM
  viability, T/C: 23%
Second compound 3.16 µM, first compound 0.03 µM
  viability, T/C: 24.2%
Second compound 3.16 µM, first compound 0.0949 µM
  viability, T/C: 20.3%
Second compound 3.16 µM, first compound 0.3 µM
  viability, T/C: 17.3%
Second compound 3.16 µM, first compound 0.949 µM
  viability, T/C: 14.5%
Second compound 3.16 µM, first compound 3 µM
  viability, T/C: 12.9%
Second compound 10 µM, first compound 0.00949 µM
  viability, T/C: 21.6%
Second compound 10 µM, first compound 0.03 µM
  viability, T/C: 26.2%
Second compound 10 µM, first compound 0.0949 µM
  viability, T/C: 23.9%
Second compound 10 µM, first compound 0.3 µM
  viability, T/C: 18.5%
Second compound 10 µM, first compound 0.949 µM
  viability, T/C: 15%
Second compound 10 µM, first compound 3 µM
  viability, T/C: 15.7%

— PubChem BioAssay AID1963827 (Molecular Pharmacology Branch, DTP, NCI, 2024)
